Test results reported in ChEMBL document CHEMBL1275241, “Novel variants of the qnrB gene, qnrB22 and qnrB23, in Citrobacter werkmanii and Citrobacter freundii” (2010).
≈ marks a conversion by molar mass, not a printed value.

What was measured:
Format in all cases: functional
Escherichia coli [1] = test: Antimicrobial activity against […] Escherichia coli DH5alpha TrfS008 harboring PMQR determinant qnrB23 by Etest
Citrobacter werkmanii = test: Antimicrobial activity against Citrobacter werkmanii PS012 expressing PMQR determinant qnrB22 gene by Etest
Citrobacter freundii = test: Antimicrobial activity against Citrobacter freundii S008 expressing PMQR determinant qnrB23 gene by Etest
Escherichia coli [2] = test: Antimicrobial activity against […] Escherichia coli DH5alpha TrfPS012 harboring PMQR determinant qnrB22 by Etest
Escherichia coli [3] = test: Antimicrobial activity against azide-resistant Escherichia coli J53 by Etest
Escherichia coli [4] = test: Antimicrobial activity against […] Escherichia coli DH5alpha by Etest
Escherichia coli [5] = test: Antimicrobial activity against azide-resistant Escherichia coli J53 TrcS008 harboring PMQR determinant qnrB23 by Etest
Escherichia coli [6] = test: Antimicrobial activity against azide-resistant Escherichia coli J53 TrcPS012 harboring PMQR determinant qnrB22 by Etest

Structure (SMILES): O=C(O)c1cn(C2CC2)c2cc(N3CCNCC3)c(F)cc2c1=O [CIPROFLOXACIN]
- MIC (Escherichia coli [1]): 0.064 µg/mL (≈ 0.193 µM)
- MIC (Citrobacter werkmanii): 0.25 µg/mL (≈ 0.754 µM)
- MIC (Citrobacter freundii): 2 µg/mL (≈ 6.04 µM)

Structure (SMILES): C[C@H]1COc2c(N3CCN(C)CC3)c(F)cc3c(=O)c(C(=O)O)cn1c23.C[C@H]1COc2c(N3CCN(C)CC3)c(F)cc3c(=O)c(C(=O)O)cn1c23.O [LEVOFLOXACIN]
- MIC (Escherichia coli [1]): 0.094 µg/mL
- MIC (Escherichia coli [2]): 0.004 µg/mL
- MIC (Citrobacter werkmanii): 0.5 µg/mL
- MIC (Citrobacter freundii): 3 µg/mL
- MIC (Escherichia coli [3]): 0.023 µg/mL
- MIC (Escherichia coli [4]): < 0.002 µg/mL
- MIC (Escherichia coli [5]): 3 µg/mL

Structure (SMILES): CCn1cc(C(=O)O)c(=O)c2ccc(C)nc21 [NALIDIXIC ACID]
- MIC (Escherichia coli [1]): 16 µg/mL (≈ 68.9 µM)
- MIC (Escherichia coli [2]): 4 µg/mL (≈ 17.2 µM)
- MIC (Citrobacter werkmanii): 32 µg/mL (≈ 138 µM)
- MIC (Citrobacter freundii): > 256 µg/mL
- MIC (Escherichia coli [3]): 3 µg/mL (≈ 12.9 µM)
- MIC (Escherichia coli [4]): 2 µg/mL (≈ 8.61 µM)
- MIC (Escherichia coli [6]): 16 µg/mL (≈ 68.9 µM)
- MIC (Escherichia coli [5]): > 256 µg/mL

Structure (SMILES): CCn1cc(C(=O)O)c(=O)c2cc(F)c(N3CCNCC3)cc21 [NORFLOXACIN]
- MIC (Escherichia coli [1]): 0.25 µg/mL (≈ 0.783 µM)
- MIC (Escherichia coli [2]): 0.064 µg/mL (≈ 0.2 µM)
- MIC (Citrobacter werkmanii): 0.5 µg/mL (≈ 1.57 µM)
- MIC (Citrobacter freundii): 8 µg/mL (≈ 25.1 µM)
- MIC (Escherichia coli [3]): 0.064 µg/mL (≈ 0.2 µM)
- MIC (Escherichia coli [4]): 0.032 µg/mL (≈ 0.1 µM)
- MIC (Escherichia coli [6]): 0.25 µg/mL (≈ 0.783 µM)
- MIC (Escherichia coli [5]): 8 µg/mL (≈ 25.1 µM)

Structure (SMILES): CC1COc2c(N3CCN(C)CC3)c(F)cc3c(=O)c(C(=O)O)cn1c23 (stereo not drawn) [OFLOXACIN]
- MIC (Escherichia coli [1]): 0.25 µg/mL (≈ 0.692 µM)
- MIC (Escherichia coli [2]): 0.064 µg/mL (≈ 0.177 µM)
- MIC (Citrobacter werkmanii): 1 µg/mL (≈ 2.77 µM)
- MIC (Citrobacter freundii): 8 µg/mL (≈ 22.1 µM)
- MIC (Escherichia coli [3]): 0.064 µg/mL (≈ 0.177 µM)
- MIC (Escherichia coli [4]): 0.023 µg/mL (≈ 0.0636 µM)
- MIC (Escherichia coli [5]): 8 µg/mL (≈ 22.1 µM)
